Among the test systems are SK-MEL-28 melanoma; SF-539 CNS; RXF 393 renal; NCI-H522 lung; OVCAR-5 ovarian; NCI/ADR-RES ovarian; UACC-257 melanoma; T-47D breast; OVCAR-8 ovarian; UACC-62 melanoma.
Common to all, as to test: NCI anticancer screen, dose series, 48 h

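Following 48 hours of exposure in 96-well plates, responses at five concentrations were used to interpolate endpoints linearly. GI50: concentration for 50% inhibition of growth. TGI denotes the concentration required for complete inhibition of growth.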

Turning to `COc1cc(NCCC2CCCCN2)c2ncccc2c1OC` (stereo unspecified), the GI50 was 11.7 µM in the experiment with SK-MEL-28 melanoma; 14.1 µM in the experiment on SF-539 CNS; 22.8 µM with RXF 393 renal; 2.41 µM in the experiment on NCI-H522 lung; 19.1 µM in the experiment on OVCAR-5 ovarian; 22.8 µM in the experiment on NCI/ADR-RES ovarian. Further, the GI50 with UACC-257 melanoma is 2.79 µM; in the experiment with T-47D breast it was 2.91 µM; in the experiment on OVCAR-8 ovarian it was 6.49 µM; in the experiment with UACC-62 melanoma it was 2.24 µM. Besides, the TGI with SK-MEL-28 melanoma came to 24.8 µM; in the experiment on SF-539 CNS it was 28.5 µM; in the experiment on RXF 393 renal it was 38.5 µM; in the experiment with NCI-H522 lung, 9.05 µM; in the experiment with OVCAR-5 ovarian, 62.7 µM; in the experiment on NCI/ADR-RES ovarian, 70.5 µM. For the same compound, the TGI was found to be 9.36 µM with UACC-257 melanoma, 14.4 µM with T-47D breast, 59.2 µM in the experiment on OVCAR-8 ovarian and 6.19 µM in the experiment on UACC-62 melanoma.
For the compound `CCC(C(=O)[C@@H](C)[C@@H](O)[C@H](C)[C@@H]1O[C@@H]([C@@H](CC)C(=O)ONC(=O)c2ccccc2)CC[C@@H]1C)[C@H]1O[C@]2(C=CC(=O)[C@]3(CC[C@@](C)([C@H]4CC[C@](O)(CC)[C@H](C)O4)O3)O2)[C@H](C)C[C@@H]1C` (stereo partly specified), the GI50 in the experiment on SK-MEL-28 melanoma was 1.6 µM; in the experiment with SF-539 CNS, 0.262 µM; with RXF 393 renal it was 0.0957 µM; in the experiment on NCI-H522 lung it was 0.0547 µM; with OVCAR-5 ovarian it was 0.498 µM; in the experiment on NCI/ADR-RES ovarian, 0.374 µM. Moreover, the GI50 is 0.255 µM in the experiment with UACC-257 melanoma, 0.0463 µM in the experiment on T-47D breast, 0.251 µM in the experiment with OVCAR-8 ovarian and 1.25 µM in the experiment on UACC-62 melanoma. The TGI was 8.57 µM with SK-MEL-28 melanoma; 1.71 µM in the experiment on SF-539 CNS; 1.74 µM in the experiment with RXF 393 renal; 1.4 µM in the experiment with NCI-H522 lung; 2.18 µM in the experiment with OVCAR-5 ovarian; 2.28 µM in the experiment with NCI/ADR-RES ovarian. Further, the TGI was determined as 5.61 µM with UACC-257 melanoma, 2.98 µM with T-47D breast, 2.77 µM in the experiment on OVCAR-8 ovarian and 2.93 µM in the experiment with UACC-62 melanoma.
With `CC(C)(C)OC(=O)N1Cc2cc3ccccc3nc2C1CO` (stereo unspecified), the GI50 with SK-MEL-28 melanoma, in the experiment on SF-539 CNS, with RXF 393 renal, in the experiment on NCI-H522 lung, in the experiment with OVCAR-5 ovarian and in the experiment on NCI/ADR-RES ovarian was over 100 µM each time. Further, the GI50 with UACC-257 melanoma, with T-47D breast, in the experiment with OVCAR-8 ovarian and in the experiment on UACC-62 melanoma was over 100 µM each time. Besides, the TGI in the experiment on SK-MEL-28 melanoma, in the experiment on SF-539 CNS, in the experiment on RXF 393 renal, in the experiment with NCI-H522 lung, in the experiment on OVCAR-5 ovarian and in the experiment with NCI/ADR-RES ovarian was over 100 µM each time. In addition, the TGI with UACC-257 melanoma, in the experiment on T-47D breast, in the experiment on OVCAR-8 ovarian and with UACC-62 melanoma was over 100 µM in each case.
As for `Cc1cn(C2CC(O)C(COC(N)=O)O2)c(=O)[nH]c1=O` (stereo unspecified), the TGI in the experiment on SK-MEL-28 melanoma, in the experiment on SF-539 CNS, with RXF 393 renal, with NCI-H522 lung, with OVCAR-5 ovarian and in the experiment on NCI/ADR-RES ovarian was over 100 µM each time. In addition, the TGI with UACC-257 melanoma, with T-47D breast, in the experiment on OVCAR-8 ovarian and with UACC-62 melanoma was over 100 µM throughout.
`CCN(CC)CCCC(C)Nc1ccnc(/C=C/c2ccc(Cl)cc2)c1` (stereo unspecified): the TGI is 3.41 µM in the experiment with SK-MEL-28 melanoma; 3.8 µM in the experiment with SF-539 CNS; 2.92 µM in the experiment on RXF 393 renal; 3.81 µM with NCI-H522 lung; 8.04 µM with OVCAR-5 ovarian; 15.3 µM in the experiment with NCI/ADR-RES ovarian. The TGI in the experiment with UACC-257 melanoma was 3.59 µM; in the experiment on T-47D breast it was 3.59 µM; in the experiment on OVCAR-8 ovarian, 7.57 µM; in the experiment on UACC-62 melanoma, 3.69 µM. Moreover, in the experiment on RXF 393 renal, the GI50 is 1.44 µM.
As to `CC(=N\O)/C(C)=N/O.CC(=N\O)/C(C)=N/O.[Fe].[NH2-].c1c[nH]cn1`, the GI50 in the experiment with SK-MEL-28 melanoma, in the experiment on SF-539 CNS, with RXF 393 renal, in the experiment with NCI-H522 lung, with OVCAR-5 ovarian and in the experiment on NCI/ADR-RES ovarian was over 100 µM in each case. Further, the GI50 in the experiment with UACC-257 melanoma, with T-47D breast, in the experiment on OVCAR-8 ovarian and in the experiment on UACC-62 melanoma was over 100 µM each time. In addition, the TGI with SK-MEL-28 melanoma, with SF-539 CNS, in the experiment with RXF 393 renal, with NCI-H522 lung, in the experiment on OVCAR-5 ovarian and in the experiment on NCI/ADR-RES ovarian was over 100 µM throughout. The TGI in the experiment on UACC-257 melanoma, with T-47D breast, with OVCAR-8 ovarian and in the experiment with UACC-62 melanoma was over 100 µM throughout.
On to `Cc1ccc2c(c1)C(O)(c1ccccc1)CCS2` (stereo unspecified), for which the TGI in the experiment with SK-MEL-28 melanoma was over 100 µM; in the experiment with SF-539 CNS it was 55 µM; in the experiment with RXF 393 renal, over 100 µM; with NCI-H522 lung, 44.6 µM; with OVCAR-5 ovarian, 80.6 µM; in the experiment on NCI/ADR-RES ovarian, over 100 µM. The TGI with UACC-257 melanoma is over 100 µM; with T-47D breast, over 100 µM; in the experiment with OVCAR-8 ovarian, over 100 µM; in the experiment on UACC-62 melanoma it was 52.7 µM.
Take `NS(=O)(=O)c1cc(C(=O)O)c(Cl)c([N+](=O)[O-])c1Cl`: the TGI in the experiment on SK-MEL-28 melanoma, in the experiment on SF-539 CNS, in the experiment with RXF 393 renal, in the experiment with NCI-H522 lung, in the experiment with OVCAR-5 ovarian and in the experiment with NCI/ADR-RES ovarian was over 100 µM each time. Besides, the TGI in the experiment on UACC-257 melanoma, in the experiment on T-47D breast, in the experiment on OVCAR-8 ovarian and in the experiment on UACC-62 melanoma was over 100 µM throughout.
On to `c1ccc2c(c1)[nH]c1c3ccccc3sc21`, for which the TGI in the experiment with SK-MEL-28 melanoma, in the experiment with SF-539 CNS, with RXF 393 renal, in the experiment on NCI-H522 lung, in the experiment on OVCAR-5 ovarian and with NCI/ADR-RES ovarian was over 100 µM each time. Also, the TGI in the experiment on UACC-257 melanoma, in the experiment on T-47D breast, in the experiment with OVCAR-8 ovarian and in the experiment on UACC-62 melanoma was over 100 µM throughout.
As to `Cn1cc(-c2nc(-c3cn(C)c4ncccc34)cs2)c2ccccc21`, the GI50 is 2.09 µM with SK-MEL-28 melanoma; 1.76 µM in the experiment on SF-539 CNS; 1.53 µM in the experiment with RXF 393 renal; 0.402 µM with NCI-H522 lung; 4.92 µM in the experiment with OVCAR-5 ovarian; 0.62 µM in the experiment with NCI/ADR-RES ovarian. Also, the GI50 was 3.61 µM with UACC-257 melanoma, 2.98 µM in the experiment on T-47D breast, 3.43 µM with OVCAR-8 ovarian and 1.35 µM in the experiment on UACC-62 melanoma. In addition, the TGI with SK-MEL-28 melanoma was over 100 µM; in the experiment with SF-539 CNS, 4.99 µM; in the experiment on RXF 393 renal it was 4.09 µM; in the experiment on NCI-H522 lung it was 11.9 µM; in the experiment on OVCAR-5 ovarian, 45.1 µM; with NCI/ADR-RES ovarian, over 100 µM. The TGI in the experiment on UACC-257 melanoma was over 100 µM; in the experiment with T-47D breast, 17 µM; with OVCAR-8 ovarian, over 100 µM; in the experiment with UACC-62 melanoma, over 100 µM.

Values taken from PubChem BioAssay (NCI).
